Measured values reported in ChEMBL document CHEMBL1137932, “Synthesis of S-alkyl L-homocysteine analogues of glutathione and their kinetic studies with gamma-glutamyl transpeptidase” (Bioorg Med Chem Lett, 2004).

Experiments:
Format in all cases: tissue-based
[1] = molecular target: T1, Glutathione hydrolase 1 proenzyme (Rattus norvegicus, UniProt P07314); assay: Compound tested for the inhibition of Gamma-glutamyltranspeptidase in rat kidney at pH 8.0 at 37 degree C (Competitive inhibition)
[2] = molecular target: T1, Glutathione hydrolase 1 proenzyme; assay: Compound tested for the inhibition of Gamma-glutamyltranspeptidase in rat kidney at pH 8.0 at 37 degree C
[3] = molecular target: T1, Glutathione hydrolase 1 proenzyme; assay: Compound tested for the inhibition of Gamma-glutamyltranspeptidase in rat kidney at pH 8.0 at 37 degree C; N/0=No inhibition observed up to 20 mM

T1 sequence (P07314 1-379 limits assumed): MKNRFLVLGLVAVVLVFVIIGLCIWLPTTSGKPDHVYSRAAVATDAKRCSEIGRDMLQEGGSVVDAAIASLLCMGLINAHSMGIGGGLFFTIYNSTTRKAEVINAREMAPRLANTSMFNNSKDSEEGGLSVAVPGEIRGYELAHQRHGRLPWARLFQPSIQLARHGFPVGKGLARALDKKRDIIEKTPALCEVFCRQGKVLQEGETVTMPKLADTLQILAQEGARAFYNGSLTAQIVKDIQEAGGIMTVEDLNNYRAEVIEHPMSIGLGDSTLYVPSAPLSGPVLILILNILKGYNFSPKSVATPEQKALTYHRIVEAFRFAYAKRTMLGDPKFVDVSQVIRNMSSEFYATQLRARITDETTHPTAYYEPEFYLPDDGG
T1 sequence (P07314 380-568 limits assumed): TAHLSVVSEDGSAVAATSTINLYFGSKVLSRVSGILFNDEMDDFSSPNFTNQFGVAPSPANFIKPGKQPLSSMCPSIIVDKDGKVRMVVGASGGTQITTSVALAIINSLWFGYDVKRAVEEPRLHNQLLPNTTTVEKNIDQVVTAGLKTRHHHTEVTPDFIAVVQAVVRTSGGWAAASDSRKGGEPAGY

Structure (SMILES)	Ki [1] [µM]	further results
NC(CC[S+]([O-])CCC(=O)NCC(=O)O)C(=O)O (configuration not stated)	53	–
N[C@@H](CC[S+]([O-])Cc1ccc(C(=O)NCC(=O)O)cc1)C(=O)O (some centres not stated)	230	–
N[C@@H](CCSCCC(=O)NCC(=O)O)C(=O)O	520	–
N[C@@H](CCS(=O)(=O)CCC(=O)NCC(=O)O)C(=O)O	–	Ki [2]: 3500 µM
CS(=O)(=O)CC[C@H](N)C(=O)O [METHIONINE SULFONE]	–	Ki [3]: No inhibition to 20mM
C[S+]([O-])CC[C@H](N)C(=O)O (some centres not stated) [METHIONINE SULFOXIDE]	5900	–
CSCC[C@H](N)C(=O)O [METHIONINE]	26900	–
